Data: patent US10144706B2 (BRISTOL-MYERS SQUIBB COMPANY, priority 2016, dated 2018)

biological target: T1, PD-1/PD-L1 interaction (PD-1-Ig / PD-L1-His) (Homo sapiens, UniProt Q9NZQ7); test: PD-1/PD-L1 Homogenous Time-Resolved Fluorescence (HTRF) binding assay; settings: IC50 range class; PD-L1-His 10 nM, PD-1-Ig 20 nM; read-out: Range or IC50
T1 construct: hPDL1(18-239)-TVMV-His; TVMV protease site linker (C); made in house; host or cells: HEK293T
Procedure, shortened: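 HTRF detection used 1 nM europium-cryptate anti-Ig and 20 nM APC anti-His. Compounds first saw 10 nM PD-L1-His for 15 min, and 20 nM PD-1-Ig was then added for another 15 min. Buffer was dPBS plus 0.1% BSA and 0.05% Tween-20. All concentrations are final.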

T1 sequence (Q9NZQ7 with tags, fused parts or gaps): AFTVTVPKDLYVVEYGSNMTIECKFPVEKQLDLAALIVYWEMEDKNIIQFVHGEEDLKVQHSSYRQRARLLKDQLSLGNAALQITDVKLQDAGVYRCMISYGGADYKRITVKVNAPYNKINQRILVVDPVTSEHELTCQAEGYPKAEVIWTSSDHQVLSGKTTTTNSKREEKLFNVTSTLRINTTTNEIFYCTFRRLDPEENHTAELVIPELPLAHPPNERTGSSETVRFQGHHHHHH

`Cc1c(OCCCNCCc2cn(C)cn2)cccc1-c1cccc(OCCCN2CC[C@@H](O)C2)c1C` [Example 2043, (R)-1-(3-((2,2′-dimethyl-3′-(3-((2-(1-methyl-1H-imidazol-4-yl)ethyl)amino)propoxy)-[1,1′-biphenyl]-3-yl)oxy)propyl)pyrrolidin-3-ol] and `Cc1c(OCCCN[C@@](C)(CO)C(=O)O)cccc1-c1cccc(OCCCN2CC[C@@H](O)C2)c1C` [Example 2013, (S)-3-hydroxy-2-((3-((3′-(3-((R)-3-hydroxypyrrolidin-1-yl)propoxy)-2,2′-dimethyl-[1,1′-biphenyl]-3-yl)oxy)propyl)amino)-2-methylpropanoic acid] fall in the same range of IC50: 90.1 to 1000 nM for the first, 90.1 to 1000 nM for the second.

First: Cc1c(OCCCN2CCN(CCO)CC2)cccc1-c1cccc(OCCCN2CCN(CCO)CC2)c1C [Example 2085, 2,2′-((((2,2′-dimethyl-[1,1′-biphenyl]-3,3′-diyl)bis(oxy))bis(propane-3,1-diyl))bis(piperazine-4,1-diyl))bis(ethan-1-ol)]
Second: Cc1c(OCCCN2CCC(CO)CC2)cccc1-c1cccc(OCCCN2CC[C@@H](O)C2)c1C [Example 2106, (R)-1-(3-((3′-(3-(4-(hydroxymethyl)piperidin-1-yl)propoxy)-2,2′-dimethyl-[1,1′-biphenyl]-3-yl)oxy)propyl)pyrrolidin-3-ol]
The IC50 of the first is higher: 90.1 to 1000 nM for the first, 20.1 to 90 nM for the second.

`COc1cc(OCc2cccc(-c3cccc(COc4cc(OC)c(CN[C@@H](CCO)C(=O)O)cc4Cl)c3C)c2C)c(Cl)cc1CN[C@@H](CCO)C(=O)O` [Example 5036, (2S,2′S)-2,2′-((((((2,2′-dimethyl-[1,1′-biphenyl]-3,3′-diyl)bis(methylene))bis(oxy))bis(5-chloro-2-methoxy-4,1-phenylene))bis(methylene))bis(azanediyl))bis(4-hydroxybutanoic acid)] and `COc1cc(OCc2cccc(-c3cccc(COc4cc(OCc5cncc(C#N)c5)c(CN(C)[C@@H](CCO)C(=O)O)cc4Cl)c3C)c2C)c(Cl)cc1CN(C)[C@@H](CCO)C(=O)O` [Example 5030, N-(4-((3′-((4-((((S)-1-carboxy-3-hydroxypropyl)(methyl)amino)methyl)-2-chloro-5-((5-cyanopyridin-3-yl)methoxy)phenoxy)methyl)-2,2′-dimethyl-[1,1′-biphenyl]-3-yl)methoxy)-5-chloro-2-methoxybenzyl)-N-methyl-L-homoserine] fall in the same range of IC50: 0.04 to 20 nM for the first, 0.04 to 20 nM for the second.

`CCCN(Cc1cc(Cl)c(OCc2cccc(-c3cccc(COc4cc(OCc5cncc(C#N)c5)c(CN(CCC)C(CCO)C(=O)O)cc4Cl)c3C)c2C)cc1OCc1cncc(C#N)c1)C(CCO)C(=O)O` (centres unmarked) [Example 40820] and `Cc1c(COc2cc(OCc3cncc(C#N)c3)c(CN(Cc3cncs3)C(CCO)C(=O)O)cc2Cl)cccc1-c1cccc(COc2cc(OCc3cncc(C#N)c3)c(CN(Cc3cncs3)C(CCO)C(=O)O)cc2Cl)c1C` (centres unmarked) [Example 40990] fall in the same range of IC50: 0.04 to 20 nM for the first, 0.04 to 20 nM for the second.

`Cc1c(OCCCN[C@@H](Cc2ccccn2)C(=O)O)cccc1-c1cccc(OCCCN2CC[C@@H](O)C2)c1C` [Example 2116, (S)-2-((3-((3′-(3-((R)-3-hydroxypyrrolidin-1-yl)propoxy)-2,2′-dimethyl-[1,1′-biphenyl]-3-yl)oxy)propyl)amino)-3-(pyridin-2-yl)propanoic acid] and `Cc1c(OCCCN[C@H](CO)c2ccccc2)cccc1-c1cccc(OCCCN2CC[C@@H](O)C2)c1C` [Example 2057, (R)-1-(3-((3′-(3-(((S)-2-hydroxy-1-phenylethyl)amino)propoxy)-2,2′-dimethyl-[1,1′-biphenyl]-3-yl)oxy)propyl)pyrrolidin-3-ol] fall in the same range of IC50: 90.1 to 1000 nM for the first, 90.1 to 1000 nM for the second.

`COCCC(NCc1cc(Cl)c(OCc2cccc(-c3cccc(COc4cc(OCc5cncc(C#N)c5)c(CNC(CCOC)C(=O)O)cc4Cl)c3C)c2C)cc1OCc1cncc(C#N)c1)C(=O)O` (centres unmarked) [Example 40780] and `Cc1c(COc2cc(OCc3cncc(C#N)c3)c(CNC[C@H](O)C(=O)O)cc2Cl)cccc1-c1cccc(COc2cc(OCc3cncc(C#N)c3)c(CNC[C@H](O)C(=O)O)cc2Cl)c1C` [Example 40220] fall in the same range of IC50: 0.04 to 20 nM for the first, 0.04 to 20 nM for the second.

`Cc1c(OCCCN(CC#N)C[C@H](O)CO)cccc1-c1cccc(OCCCN(CC#N)C[C@H](O)CO)c1C` [Example 2100, 2,2′-((((2,2′-dimethyl-[1,1′-biphenyl]-3,3′-diyl)bis(oxy))bis(propane-3,1-diyl))bis(((S)-2,3-dihydroxypropyl)azanediyl))diacetonitrile] and `Cc1c(OCCCN(C)CCC(N)=O)cccc1-c1cccc(OCCCN(C)CCC(N)=O)c1C` [Example 2076] fall in the same range of IC50: 20.1 to 90 nM for the first, 20.1 to 90 nM for the second.

Compared with `Cc1c(OCCCN2CCC(N(C)C)CC2)cccc1-c1cccc(OCCCN2CC[C@@H](O)C2)c1C` [Example 2070, (R)-1-(3-((3′-(3-(4-(dimethylamino)piperidin-1-yl)propoxy)-2,2′-dimethyl-[1,1′-biphenyl]-3-yl)oxy)propyl)pyrrolidin-3-ol], `Cc1c(OCCCN2CCCCC2)cccc1-c1cccc(OCCCN2CC[C@@H](O)C2)c1C` [Example 2105, (R)-1-(3-((2,2′-dimethyl-3′-(3-(piperidin-1-yl)propoxy)-[1,1′-biphenyl]-3-yl)oxy)propyl)pyrrolidin-3-ol] is lower in IC50: 90.1 to 1000 nM for the first, 20.1 to 90 nM for the second. The second is the more potent here.

Compared with `Cc1c(COc2cc(OCc3ccc(-n4cccn4)nc3)c(CN(C)C(C)(CO)CO)cc2Cl)cccc1-c1cccc(COc2cc(OCc3ccc(-n4cccn4)nc3)c(CN(C)C(C)(CO)CO)cc2Cl)c1C` [Example 5023, 2,2′-((((((2,2′-dimethyl-[1,1′-biphenyl]-3,3′-diyl)bis(methylene))bis(oxy))bis(2-((6-(1H-pyrazol-1-yl)pyridin-3-yl)methoxy)-5-chloro-4,1-phenylene))bis(methylene))bis(methylazanediyl))bis(2-methylpropane-1,3-diol)], `Cc1c(COc2cc(OCc3cncc(C#N)c3)c(CN[C@@](C)(CO)C(=O)O)cc2Cl)cccc1-c1cccc(COc2cc(OCc3cncc(C#N)c3)c(CN[C@@](C)(CO)C(=O)O)cc2Cl)c1C` [Example 2123, (2S,2′S)-2,2′-((((((2,2′-dimethyl-[1,1′-biphenyl]-3,3′-diyl)bis(methylene))bis(oxy))bis(5-chloro-2-((5-cyanopyridin-3-yl)methoxy)-4,1-phenylene))bis(methylene))bis(azanediyl))bis(3-hydroxy-2-methylpropanoic acid)] is lower in IC50: 20.1 to 90 nM for the first, 0.04 to 20 nM for the second.

`Cc1c(OCCCN[C@@H]2C[C@H](CO)[C@@H](O)[C@H]2O)cccc1-c1cccc(OCCCN[C@@H]2C[C@H](CO)[C@@H](O)[C@H]2O)c1C` [Example 2088, (1S,1′S,2R,2′R,3R,3′R,5R,5′R)-5,5′-((((2,2′-dimethyl-[1,1′-biphenyl]-3,3′-diyl)bis(oxy))bis(propane-3,1-diyl))bis(azanediyl))bis(3-(hydroxymethyl)cyclopentane-1,2-diol)] and `Cc1c(OCCCNCC(C)(O)CO)cccc1-c1cccc(OCCCNCC(C)(O)CO)c1C` (mixture of isomers) [Example 2104, 3,3′-((((2,2′-dimethyl-[1,1′-biphenyl]-3,3′-diyl)bis(oxy))bis(propane-3,1-diyl))bis(azanediyl))bis(2-methylpropane-1,2-diol)] fall in the same range of IC50: 0.04 to 20 nM for the first, 0.04 to 20 nM for the second.

First: N#Cc1cncc(COc2cc(OCc3cccc(-c4cccc(COc5cc(OCc6cncc(C#N)c6)c(C(=O)NCCCO)cc5Cl)c4Cl)c3Cl)c(Cl)cc2C(=O)O)c1 [Example 90030]
Second: CN1CCN(C(=O)c2cc(Cl)c(OCc3cccc(-c4cccc(COc5cc(OCc6cncc(C#N)c6)c(C(=O)N6CCN(C)CC6)cc5Cl)c4Cl)c3Cl)cc2OCc2cncc(C#N)c2)CC1 [Example 80030]
The IC50 of the first is higher: 20.1 to 90 nM for the first, 0.04 to 20 nM for the second. The second is the more potent here.

First: CNCCOCCN(C)CCCOc1cccc(-c2cccc(OCCCN3CC[C@@H](O)C3)c2C)c1C [Example 2096, (R)-1-(3-((2,2′-dimethyl-3′-(3-(methyl(2-(2-(methylamino)ethoxy)ethyl)amino)propoxy)-[1,1′-biphenyl]-3-yl)oxy)propyl)pyrrolidin-3-ol]
Second: Cc1c(OCCCN2CC[C@@H](O)C2)cccc1-c1cccc(OCCCN2CC[C@@H](O)C2)c1C#N [Example 3025, 3,3′-bis(3-((R)-3-hydroxypyrrolidin-1-yl)propoxy)-2′-methyl-[1,1′-biphenyl]-2-carbonitrile]
The IC50 of the first is lower: 20.1 to 90 nM for the first, 90.1 to 1000 nM for the second. The first is the more potent here.

Compared with `Cc1c(COc2cc(OCc3cncc(C#N)c3)c(CN3C(=O)OCC3CO)cc2Cl)cccc1-c1cccc(COc2cc(OCc3cncc(C#N)c3)c(CN3C(=O)OCC3CO)cc2Cl)c1C` (centres unmarked) [Example 2133, 5,5′-((((((2,2′-dimethyl-[1,1′-biphenyl]-3,3′-diyl)bis(methylene))bis(oxy))bis(4-chloro-6-((4-(hydroxymethyl)-2-oxooxazolidin-3-yl)methyl)-3,1-phenylene))bis(oxy))bis(methylene))dinicotinonitrile], `Cc1c(COc2cc(OCc3cncc(C#N)c3)c(CN[C@@H](C(=O)O)[C@H](C)OCc3ccccc3)cc2Cl)cccc1-c1cccc(COc2cc(OCc3cncc(C#N)c3)c(CN[C@@H](C(=O)O)[C@H](C)OCc3ccccc3)cc2Cl)c1C` [Example 40960] is lower in IC50: 90.1 to 1000 nM for the first, 20.1 to 90 nM for the second. The second is the more potent here.

same assay, conditions: numeric IC50; PD-L1-His 10 nM, PD-1-Ig 20 nM; read-out: Range or IC50

In order of rising IC50:
1. Cc1c(OCCCN2CC(N(C)C)C2)cccc1-c1cccc(OCCCN2CC[C@@H](O)C2)c1C [Example 2002, (R)-1-(3-((3′-(3-(3-(dimethylamino)azetidin-1-yl)propoxy)-2,2′-dimethyl-[1,1′-biphenyl]-3-yl)oxy)propyl)pyrrolidin-3-ol]  99 nM
2. Cc1c(OCCCN2CC[C@@H](O)C2)cccc1-c1cccc(OCc2cccc(C#N)c2)c1C [Example 3019, (R)-3-(((3′-(3-(3-hydroxypyrrolidin-1-yl)propoxy)-2,2′-dimethyl-[1,1′-biphenyl]-3-yl)oxy)methyl)benzonitrile]  106 nM
3. N#Cc1cncc(COc2cc(OCc3cccc(-c4cccc(COc5cc(OCc6cncc(C#N)c6)c(CN6CCC(O)(C(=O)O)CC6)cc5Cl)c4)c3)c(Cl)cc2CO)c1 [Example 50040]  115 nM
